Values after ≈ are worked out from the molar mass of the structure shown.
Tests used:
HCC1937 = experiment: MTT cell proliferation assay, HCC1937; type: cell-based; conditions: Homo sapiens, 48 h, read-out: In vitro cytotoxic activity IC50, HCC1937
Method: (§1) Compounds 5a–o were evaluated for their cytotoxic activity in vitro against some human cancer cell lines, including A549, HCC1937 and MDA-MB-468 by applying a MTT colorimetric assay. Doxorubicin was used as positive control. The calculated IC50 values were reported differently according to the different cancer cells.
(§2) All target compounds were evaluated for their cytotoxic activities (%) in vitro against human cancer cell lines, including A549, HCC1937 and MDA-MB-468, by applying the MTT colorimetric assay. The cell concentration was adjusted to 2 × 10^4/mL using complete culture medium, then 100 μL cell suspension was inoculated in each well of a 96-well culture plate and cultured for 24 h. All the target compounds were adjusted to different concentrations ranging from 1.25 μmol/L to 40 μmol/L, then 100 μL solution was added to each well of 96-well culture plate and 100 μL complete culture medium was added to the control group. Cells were placed under 5% CO2 at 37 °C and cultured for 48 h. Then 5 mg/mL MTT 20 μL was added to each well of 96-well culture plate and cultured for another 2~4 h. The medium was removed and 150 μL DMSO was added to each well of 96-well culture plate, then oscillated and mixed 15 min. The absorbance (A) of each well was measured in terms of optical density at a wavelength of 570 nm, each cell viability assay was performed in triplicate and taken the average value, then calculated the IC50. Doxorubicin was the positive control drug.

[1] = In vitro cytotoxic activity, Hek293; type: cell-based; conditions: human, Hek293 cells; unit inferred
From the text: Table 1 In vitro cytotoxic activity of target compounds: 5a–o. | column: Hek293

[2] = system: A549, HCC1937 and MDA-MB-468 cell lines; experiment: MTT assay, statements over the three cell lines; type: cell-based, human; conditions: for Activity toward the cell lines (in words) / Potency compared to 5a and 5b: SAR discussion; for IC50: Homo sapiens, range over the three cell lines and over 5a and 5b, read-out: IC50 toward the A549, HCC1937 and MDA-MB-468 cell lines
Method: as §1, §2

MDA-MB-468 = experiment: MTT cell proliferation assay, MDA-MB-468; type: cell-based; conditions: Homo sapiens, 48 h, read-out: In vitro cytotoxic activity IC50, MDA-MB-48
Method: as §1, §2

A549 = experiment: MTT cell proliferation assay, A549; type: cell-based; conditions: Homo sapiens, 48 h, read-out: In vitro cytotoxic activity IC50, A549
Method: as §1, §2

KM20L2 = system: KM20L2; design: method as in PMID 9051914; conditions: cited from earlier work
SK-MEL-5 = system: SK-MEL-5; design: method as in PMID 9051914; conditions: cited from earlier work
HCC1937 cells = experiment: Annexin V-FITC/PI flow cytometry apoptosis; type: cell-based, human; conditions: control 6.7%
Method: When the concentration of 5b was 7.5 μM, the proportion of apoptotic cells was 11.4%. When the concentration was 10 μM, the proportion of apoptotic cells was 13.4%. When the concentration was 15 μM, the proportion of apoptotic cells was 12.9%. When the concentration was 20 μM, the proportion of apoptotic cells was 29%. The proportion of apoptotic cells in control group was 6.7%. As the concentration increased, the number of apoptotic cells increased gradually and the number of apoptotic cells and concentration were directly proportional, although there was no significant difference between 10 μM and 15 μM.
The Annexin V-FITC apoptosis detection kit was used to detect apoptotic cells according to the manufacturer’s protocol. Briefly, cells were gently washed with PBS and collected using trypsinization, disaggregated to a single cell suspension and incubated with 5 μL of Annexin V-FITC and 10 μL of a PI solution for 15 min in the dark. The apoptotic cells were detected using a flow cytometer (BD, San Diego, CA, USA), then quantified and the percentage of apoptotic cells measured.

| melting point [°C] | IC50 [2] [µM] | Compound | IC50 (HCC1937) [µM] | IC50 [1] [µM] | Activity toward the cell lines (in words) [2] | IC50 (MDA-MB-468) [µM] | IC50 (A549) [µM] | ED50 (KM20L2) [µg/mL] | ED50 (SK-MEL-5) [µg/mL] | Potency compared to 5a and 5b [2] | Proportion of apoptotic cells (HCC1937 cells; HCC1937, 7.5 μM) [%] | Proportion of apoptotic cells (HCC1937 cells; HCC1937, 10 μM) [%] | Proportion of apoptotic cells (HCC1937 cells; HCC1937, 15 μM) [%] | Proportion of apoptotic cells (HCC1937 cells; HCC1937, 20 μM) [%] |
| --- | --- | --- | --- | --- | --- | --- | --- | --- | --- | --- | --- | --- | --- | --- |
| 223.6 to 225.7 | – | Cc1ccccc1NS(=O)(=O)c1ccc2c(c1)[nH]c(=O)n2Cc1ccccc1 [5j, Benzyl-2-oxo-N-o-tolyl-2,3-dihydro-1H-benzo[d]imidazole-5-sulfonamide] | > 200 | 666 | almost no activity | > 200 | > 200 | – | – | – | – | – | – | – |
| 217.8 to 218.9 | – | O=c1[nH]c2cc(S(=O)(=O)NC3CC3)ccc2n1CCc1ccccc1 [5m, N-Cyclopropyl-2-oxo-1-phenethyl-2,3-dihydro-1H-benzo[d]imidazole-5-sulfonamide] | > 200 | 448 | – | > 200 | > 200 | – | – | – | – | – | – | – |
| 187 to 188.5 | – | O=c1[nH]c2cc(S(=O)(=O)NC3CCCCC3)ccc2n1CCc1ccccc1 [5k, N-Cyclohexyl-2-oxo-1-phenethyl-2,3-dihydro-1H-benzo[d]imidazole-5-sulfonamide] | > 200 | 384 | – | 135 ± 9.7 | 116 ± 7.6 | – | – | – | – | – | – | – |
| 173.4 to 174.7 | – | CC(C)NS(=O)(=O)c1ccc2c(c1)[nH]c(=O)n2Cc1ccccc1 [5i, Benzyl-N-isopropyl-2-oxo-2,3-dihydro-1H-benzo[d]imidazole-5-sulfonamide] | > 200 | 709 | almost no activity | > 200 | > 200 | – | – | – | – | – | – | – |
| 183.3 to 184.3 | – | O=c1[nH]c2cc(S(=O)(=O)N3CCCCC3)ccc2n1CCc1ccccc1 [5n, Phenethyl-5-(piperidin-1-ylsulfonyl)-1H-benzo[d]imidazol-2(3H)-one] | 22 ± 1.3 | > 10000 | – | 12 ± 1.02 | 16 ± 0.9 | – | – | – | – | – | – | – |
| 218.2 to 219.6 | – | CN1CCN(S(=O)(=O)c2ccc3c(c2)[nH]c(=O)n3CCc2ccccc2)CC1 [5l, 5-(4-Methylpiperazin-1-ylsulfonyl)-1-phenethyl-1H-benzo[d]imidazol-2(3H)-one] | 18 ± 1.2 | 6310 | – | 22 ± 1.6 | 15 ± 1.1 | – | – | – | – | – | – | – |
| 102.3 to 104.1 | – | O=c1[nH]c2cc(S(=O)(=O)N3CCOCC3)ccc2n1CCc1ccccc1 [5o, 5-(Morpholinosulfonyl)-1-phenethyl-1H-benzo[d]imidazol-2(3H)-one] | 11 ± 0.71 | > 10000 | – | 15 ± 0.93 | 9.7 ± 0.88 | – | – | – | – | – | – | – |

Continued, compound first:

| Compound | melting point [°C] | IC50 [2] [µM] | IC50 (HCC1937) [µM] | IC50 [1] [µM] | Activity toward the cell lines (in words) [2] | IC50 (MDA-MB-468) [µM] | IC50 (A549) [µM] | ED50 (KM20L2) [µg/mL] | ED50 (SK-MEL-5) [µg/mL] | Potency compared to 5a and 5b [2] | Proportion of apoptotic cells (HCC1937 cells; HCC1937, 7.5 μM) [%] | Proportion of apoptotic cells (HCC1937 cells; HCC1937, 10 μM) [%] | Proportion of apoptotic cells (HCC1937 cells; HCC1937, 15 μM) [%] | Proportion of apoptotic cells (HCC1937 cells; HCC1937, 20 μM) [%] |
| --- | --- | --- | --- | --- | --- | --- | --- | --- | --- | --- | --- | --- | --- | --- |
| O=c1[nH]c2cc(S(=O)(=O)NC3CC3)ccc2n1Cc1ccccc1 [5h, Benzyl-N-cyclopropyl-2-oxo-2,3-dihydro-1H-benzo[d]imidazole-5-sulfonamide] | 168.6 to 170.3 | – | > 200 | 370 | almost no activity | > 200 | > 200 | – | – | – | – | – | – | – |
| O=c1[nH]c2cc(S(=O)(=O)Nc3ccccc3)ccc2n1Cc1ccccc1 [5g, Benzyl-2-oxo-N-phenyl-2,3-dihydro-1H-benzo[d]imidazole-5-sulfonamide] | 91.9 to 93.3 | – | 152 ± 9.8 | 2000 | almost no activity | > 200 | > 200 | – | – | – | – | – | – | – |
| COc1cccc2c1C(=O)c1c(O)c3c(c(O)c1C2=O)C[C@@](O)(C(=O)CO)C[C@@H]3O[C@H]1C[C@H](N)[C@H](O)[C@H](C)O1 [Doxorubicin, reference compound] | – | – | 4.8 ± 0.22 | 12.2 | – | 2.7 ± 0.19 | 2.5 ± 0.13 | – | – | – | – | – | – | – |
| O=C1N[C@H]2n3c(cc(Br)c3Br)C(=O)N3CCC[C@]23N1 [Dibromophakellstatin] | – | – | – | – | – | – | – | 0.11 (≈ 0.282 µM) | 0.11 (≈ 0.282 µM) | – | – | – | – | – |
| O=c1[nH]c2cc(S(=O)(=O)NCc3ccccc3)ccc2n1Cc1ccccc1 [5e, N,1-Dibenzyl-2-oxo-2,3-dihydro-1H-benzo[d]imidazole-5-sulfonamide] | 160.6 to 185.9 | – | 127 ± 9.9 | > 10000 | almost no activity | > 200 | > 200 | – | – | – | – | – | – | – |
| O=c1[nH]c2cc(S(=O)(=O)N3CCOCC3)ccc2n1Cc1ccccc1 [5a, Benzyl-5-(morpholinosulfonyl)-1H-benzo[d]imidazol-2(3H)-one] | 198.5 to 200.1 | 2.6 to 9 | 7.8 ± 0.49 | > 10000 | – | 9 ± 0.67 | 5.2 ± 0.35 | – | – | – | – | – | – | – |
| O=c1[nH]c2cc(S(=O)(=O)N3CCCCC3)ccc2n1Cc1ccccc1 [5d, Benzyl-5-(piperidin-1-ylsulfonyl)-1H-benzo[d]imidazol-2(3H)-one] | 189.4 to 190.5 | – | 85 ± 7.1 | 756 | – | 73 ± 6.9 | 77 ± 6.8 | – | – | equivalent to 10-fold inferior potency | – | – | – | – |
| CN1CCN(S(=O)(=O)c2ccc3c(c2)[nH]c(=O)n3Cc2ccccc2)CC1 [5b, Benzyl-5-(4-methylpiperazin-1-ylsulfonyl)-1H-benzo[d]imidazol-2(3H)-one] | 107.2 to 108.1 | 2.6 to 9 | 2.6 ± 0.21 | 293 | – | 6.3 ± 0.45 | 3.1 ± 0.17 | – | – | – | 11.4 | 13.4 | 12.9 | 29 |
| O=C(c1ccccc1)c1cccc(NS(=O)(=O)c2ccc3c(c2)[nH]c(=O)n3Cc2ccccc2)c1 [5f, N-(3-Benzoylphenyl)-1-benzyl-2-oxo-2,3-dihydro-1H-benzo[d]imidazole-5-sulfonamide] | 85.2 to 86.3 | – | > 200 | > 10000 | almost no activity | 82 ± 6.1 | > 200 | – | – | – | – | – | – | – |
| O=c1[nH]c2cc(S(=O)(=O)NC3CCCCC3)ccc2n1Cc1ccccc1 [5c, Benzyl-N-cyclohexyl-2-oxo-2,3-dihydro-1H-benzo[d]imidazole-5-sulfonamide] | 166.7 to 167.2 | – | 105 ± 8.9 | 248 | – | > 200 | 88 ± 6.1 | – | – | equivalent to 10-fold inferior potency | – | – | – | – |

— article PMC6273811, “Synthesis and Antitumor Evaluation of Novel 5-Hydrosulfonyl-1H-benzo[d]imidazol-2(3H)-one Derivatives” (Molecules, 2016)
